Numbers after ± are expanded uncertainties.
Legend:
[1] = 100 kPa, Liquid; for viscosity: Cone and plate viscometry; for mass density: Vibrating tube method
[2] = xn = mol fraction of the nth substance listed; conditions: 100 kPa, Liquid, Cone and plate viscometry

CCn1cc[n+](C)c1.O=S(=O)([N-]S(=O)(=O)C(F)(F)F)C(F)(F)F
[1]
Conditions | mass density [kg/m3] | viscosity [mPa·s]
278.15 K | – | 80 ± 10
283.15 K | 1534.1 ± 4.1 | 63 ± 8
288.15 K | 1529 ± 4.1 | 50 ± 6
293.15 K | 1523.9 ± 4.1 | –
295.15 K | 1521.9 ± 4.1 | –
298.15 K | 1518.9 ± 4 | –
303.15 K | 1513.9 ± 4 | –
308.15 K | 1508.9 ± 4 | –
313.15 K | 1503.9 ± 4 | –
318.15 K | 1499 ± 4 | –
323.15 K | 1494.1 ± 4 | –
328.15 K | 1489.1 ± 4 | –
333.15 K | 1484.2 ± 4 | –
338.15 K | 1479.3 ± 4 | –
343.15 K | 1474.4 ± 4 | –
348.15 K | 1469.6 ± 4 | –
353.15 K | 1464.7 ± 4 | –

CCCCCC[n+]1ccn(C)c1.O=S(=O)([N-]S(=O)(=O)C(F)(F)F)C(F)(F)F
[1]
Conditions | mass density [kg/m3]
283.15 K | 1385.6 ± 4
288.15 K | 1381 ± 4
293.15 K | 1376.5 ± 4
295.15 K | 1374.6 ± 4
298.15 K | 1371.9 ± 4
303.15 K | 1367.3 ± 4
308.15 K | 1362.8 ± 4
313.15 K | 1358.3 ± 4
318.15 K | 1353.7 ± 4
323.15 K | 1349.2 ± 4
328.15 K | 1344.7 ± 4
333.15 K | 1340.3 ± 4
338.15 K | 1335.8 ± 4
343.15 K | 1331.4 ± 4
348.15 K | 1326.9 ± 4
353.15 K | 1322.5 ± 4

CCCCCCn1cc[n+](C)c1.N#Cc1ccc[n-]1 [1-hexyl-3-methylimidazolium 2-cyanopyrrolide]
[1]
Conditions | viscosity [mPa·s]
278.15 K | 1540 ± 210
283.15 K | 902 ± 120
288.15 K | 553 ± 72
293.15 K | 355 ± 45
298.15 K | 239 ± 30
303.15 K | 167 ± 21
308.15 K | 122 ± 15
313.15 K | 91 ± 11
318.15 K | 70 ± 9
323.15 K | 55 ± 7

CCCCCCn1cc[n+](C)c1C.O=S(=O)([N-]S(=O)(=O)C(F)(F)F)C(F)(F)F
[1]
Conditions | mass density [kg/m3]
283.15 K | 1373 ± 12
288.15 K | 1368.4 ± 12
293.15 K | 1363.9 ± 12
295.15 K | 1362.1 ± 12
298.15 K | 1359.5 ± 12
303.15 K | 1355.1 ± 12
308.15 K | 1350.8 ± 12
313.15 K | 1346.4 ± 12
318.15 K | 1342 ± 12
323.15 K | 1337.6 ± 12
328.15 K | 1333.2 ± 12
333.15 K | 1328.9 ± 12
338.15 K | 1324.5 ± 12
343.15 K | 1320.2 ± 12
348.15 K | 1315.8 ± 12
353.15 K | 1311.5 ± 12

CCCCCCCCCCCCCC[P+](CCCCCC)(CCCCCC)CCCCCC.N#Cc1ccc[n-]1 [trihexyl(tetradecyl)phosphonium 2-cyanopyrrolide]
[1]
Conditions | viscosity [mPa·s]
278.15 K | 1764 ± 240
283.15 K | 1179 ± 160
288.15 K | 804 ± 110
293.15 K | 563 ± 73
298.15 K | 404 ± 51
303.15 K | 297 ± 37
308.15 K | 223 ± 28
313.15 K | 170 ± 21
318.15 K | 133 ± 16
323.15 K | 106 ± 13

CCCCCCCC[P+](CC)(CC)CC.O=[N+]([O-])c1cn[n-]c1 [triethyloctylphosphonium 4-nitropyrazolide]
[1]
Conditions | mass density [kg/m3]
283.15 K | 1040.7 ± 12
288.15 K | 1037.7 ± 12
293.15 K | 1034.6 ± 12
295.15 K | 1033.4 ± 12
298.15 K | 1031.5 ± 12
303.15 K | 1028.5 ± 12
308.15 K | 1025.5 ± 12
313.15 K | 1022.6 ± 12
318.15 K | 1019.6 ± 12
323.15 K | 1016.7 ± 12
328.15 K | 1013.8 ± 12
333.15 K | 1010.8 ± 12
338.15 K | 1007.9 ± 12
343.15 K | 1005 ± 12
348.15 K | 1002.1 ± 12
353.15 K | 999.2 ± 12

CC[P+](CC)(CC)COCCOC.O=S(=O)([N-]S(=O)(=O)C(F)(F)F)C(F)(F)F
[1]
Conditions | viscosity [mPa·s]
278.15 K | 84 ± 10
283.15 K | 65 ± 8
288.15 K | 51 ± 6

CCCC[n+]1ccn(C)c1.O=S(=O)([N-]S(=O)(=O)C(F)(F)F)C(F)(F)F
[1]
Conditions | mass density [kg/m3] | viscosity [mPa·s]
278.15 K | – | 138 ± 17
283.15 K | 1451.1 ± 4 | 104 ± 13
288.15 K | 1446.3 ± 4 | 80 ± 10
293.15 K | 1441.5 ± 4 | 63 ± 8
295.15 K | 1439.6 ± 4 | –
298.15 K | 1436.8 ± 4 | 51 ± 6
303.15 K | 1432 ± 4 | –
308.15 K | 1427.3 ± 4 | –
313.15 K | 1422.7 ± 4 | –
318.15 K | 1418 ± 4 | –
323.15 K | 1413.3 ± 4 | –
328.15 K | 1408.7 ± 4 | –
333.15 K | 1404.1 ± 4 | –
338.15 K | 1399.4 ± 4 | –
343.15 K | 1394.8 ± 4 | –
348.15 K | 1390.2 ± 4 | –
353.15 K | 1385.7 ± 4 | –

CCCCCCCCCCCCCC[P+](CCCCCC)(CCCCCC)CCCCCC.O=[N+]([O-])c1cn[n-]c1 [trihexyl(tetradecyl)phosphonium 4-nitropyrazolide] + CCCCCC[n+]1ccn(C)c1.O=S(=O)([N-]S(=O)(=O)C(F)(F)F)C(F)(F)F
viscosity [mPa·s], [2]
Conditions | 278.15 K | 283.15 K | 288.15 K | 293.15 K | 298.15 K | 303.15 K | 308.15 K | 313.15 K | 318.15 K | 323.15 K
x1 = 0.099 | 338 ± 43 | 241 ± 30 | 175 ± 22 | 132 ± 16 | 101 ± 12 | 80 ± 10 | 65 ± 8 | 52 ± 6 | – | –
x1 = 0.2 | 528 ± 68 | 367 ± 47 | 261 ± 33 | 191 ± 24 | 144 ± 18 | 111 ± 14 | 88 ± 11 | 70 ± 8 | 57 ± 7 | –
x1 = 0.3 | 831 ± 110 | 565 ± 73 | 393 ± 50 | 282 ± 35 | 208 ± 26 | 158 ± 19 | 122 ± 15 | 97 ± 12 | 78 ± 9 | 64 ± 8
x1 = 0.501 | 1594 ± 220 | 1055 ± 140 | 715 ± 93 | 499 ± 64 | 357 ± 45 | 264 ± 33 | 199 ± 25 | 153 ± 19 | 120 ± 15 | 96 ± 12
x1 = 0.695 | 2474 ± 350 | 1600 ± 220 | 1061 ± 140 | 726 ± 95 | 512 ± 66 | 371 ± 47 | 276 ± 34 | 209 ± 26 | 162 ± 20 | 128 ± 16
x1 = 0.797 | 2704 ± 380 | 1750 ± 240 | 1158 ± 160 | 788 ± 100 | 554 ± 71 | 400 ± 51 | 296 ± 37 | 222 ± 27 | 171 ± 21 | 134 ± 16
x1 = 0.898 | 3071 ± 440 | 1971 ± 270 | 1297 ± 180 | 880 ± 120 | 614 ± 80 | 441 ± 56 | 325 ± 41 | 244 ± 30 | 187 ± 23 | 146 ± 18

CCCCCCn1cc[n+](C)c1.O=[N+]([O-])c1cn[n-]c1 [1-hexyl-3-methylimidazolium 4-nitropyrazolide] + CCCCCCCC[P+](CC)(CC)CC.O=S(=O)([N-]S(=O)(=O)C(F)(F)F)C(F)(F)F
viscosity [mPa·s], [2]
Conditions | 278.15 K | 283.15 K | 288.15 K | 293.15 K | 298.15 K | 303.15 K | 308.15 K | 313.15 K | 318.15 K | 323.15 K
x1 = 0.1 | 402 ± 51 | 284 ± 36 | 205 ± 25 | 152 ± 19 | 116 ± 14 | 90 ± 11 | 72 ± 9 | 58 ± 7 | – | –
x1 = 0.299 | 470 ± 60 | 325 ± 41 | 230 ± 29 | 168 ± 21 | 127 ± 16 | 98 ± 12 | 77 ± 9 | 62 ± 8 | 51 ± 6 | –
x1 = 0.499 | 639 ± 83 | 428 ± 55 | 294 ± 37 | 209 ± 26 | 154 ± 19 | 116 ± 14 | 90 ± 11 | 71 ± 9 | 57 ± 7 | –
x1 = 0.701 | 1045 ± 140 | 660 ± 86 | 432 ± 55 | 295 ± 37 | 209 ± 26 | 154 ± 19 | 116 ± 14 | 90 ± 11 | 71 ± 9 | 57 ± 7
x1 = 0.9 | 2181 ± 300 | 1262 ± 170 | 765 ± 100 | 488 ± 63 | 326 ± 41 | 227 ± 28 | 164 ± 20 | 122 ± 15 | 93 ± 11 | 74 ± 9

CCCCCCCCCCCCCC[P+](CCCCCC)(CCCCCC)CCCCCC.O=S(=O)([N-]S(=O)(=O)C(F)(F)F)C(F)(F)F + CCCCCC[n+]1ccn(C)c1.O=S(=O)([N-]S(=O)(=O)C(F)(F)F)C(F)(F)F
viscosity [mPa·s], [2]
Conditions | 278.15 K | 283.15 K | 288.15 K | 293.15 K | 298.15 K | 303.15 K | 308.15 K | 313.15 K | 318.15 K | 323.15 K
x1 = 0.2 | 390 ± 49 | 280 ± 35 | 205 ± 25 | 153 ± 19 | 118 ± 14 | 92 ± 11 | 74 ± 9 | 60 ± 7 | – | –
x1 = 0.398 | 652 ± 85 | 459 ± 59 | 329 ± 41 | 242 ± 30 | 183 ± 23 | 141 ± 17 | 111 ± 13 | 89 ± 11 | 72 ± 9 | 60 ± 7
x1 = 0.596 | 873 ± 120 | 611 ± 79 | 434 ± 55 | 316 ± 40 | 236 ± 29 | 180 ± 22 | 140 ± 17 | 111 ± 13 | 90 ± 11 | 73 ± 9
x1 = 0.748 | 1019 ± 140 | 706 ± 92 | 500 ± 64 | 362 ± 46 | 270 ± 34 | 204 ± 25 | 158 ± 19 | 124 ± 15 | 100 ± 12 | 81 ± 10
x1 = 0.903 | 1114 ± 150 | 774 ± 100 | 547 ± 70 | 396 ± 50 | 293 ± 37 | 221 ± 27 | 171 ± 21 | 134 ± 16 | 107 ± 13 | 86 ± 10

From the NIST ThermoML archive (doi:10.1021/acs.jced.7b00221)
